# Experimental data published in patent US7510825B2, “Kits and methods for detection of apoptotic cells” (NST NeuroSurvival Technologies Ltd, priority 2000, dated 2009).
# Assays:
# cardiomyocytes = test: Focal uptake of DDC in heart following sepsis (CLP); assay type: in vivo, mice; settings: 24 h after cecal ligature and perforation
# Protocol: (§1) A. Administration of DDC in-vivo: Injection of 200 μl of DDC intravenously. Following 1-2 hours, animal is sacrificed, and the desired organ is placed in a test tube or on a small plate, suitable for liquid nitrogen freezing. The plate is then covered with an aluminum foil, and transferred to liquid nitrogen. Following 5-30 minutes the specimen is being frozen to −80° C. and kept at −80° C. for at least 16 hr. B. Analysis of the Specimen: • a. Whole organ imaging Ex-vivo whole organ fluorescence imaging may be carried out on freshly excised specimen, that can be analyzed under a stereomicroscope (such as Leica MZ FL III, Leica Switzerland). DDC may be visualized using 360cx and >420cm nm filter set. Emitted fluorescence can be imaged using appropriate camera and software, such as a Leica DC 300F Distal camera and images can be processed and analyzed by Leica QWin Lite software. • b. Histological analysis, from the frozen organ or tissue, 4 μm cryosections are prepared on slides. Analysis of the tissue sections can be performed using a fluorescence microscope with a UV filter characterized by excitation at 360-370 nm (band pass) and emission at 420 nm (barrier filter) In case that staining of the examined tissue is desired, the following procedures can be applied:
# The cecum of anesthetized mice was isolated, ligated distal to the ileocaecal valve, and punctured twice with 26-gauge needle. […]
# [1] = test system: epithelial cells of the small intestine; test: Detection by DDC of apoptosis in small intestine epithelial cells following chemotherapy; assay type: in vivo, mice; settings: 48 hr following Cyclophosphamide and Taxol chemotherapy
# Protocol: as §1, with “DDC may be visualized using 360cx and >420cm nm filter set.” left out, “Histological analysis, from the frozen organ or tissue, 4 μm cryosections are prepared on slides.” left out
# Chemotherapy treatment is not selective to tumor cells, but can also affect other organs/tissue within the body as a side effect. […] Such side effects may be detected by DDC in the small intestine, in which the epithelial cells are affected by the chemotherapy. […]
# [2] = test system: cardiomyocytes of the ischemic heart; test: Detection by DDC of ischemic damage in the heart following ischemia-reperfusion; assay type: in vivo, mice; settings: ischemia 40 minutes, reperfusion 90 minutes; DDC at onset of ischemia
# Protocol: Ischemia/Reperfusion was induced in male Swiss mice by ligation and subsequent release of a suture around the left anterior descending coronary artery. Ischemia was for 40 minutes followed by reperfusion of 90 minutes. DDC was injected to the Jugular vein at the onset of ischemia. Uptake of DDC was followed at real time in the beating heart using a Laica stereomycroscope. Pictures were taken at the end point of the reperfusion (90 minutes) and collected by Hamamatsu CCD camera. For inhibition by caspase inhibitors, animals were injected with a pan-Caspase inhibitor in two doses of 10 mg/kg given at the time of reperfusion. […] Figures (C) and (D) Cryosections prepared from the heart that was collected at the end point of the experiments DDC fluorescence can be viewed in single apoptotic cardiomyocites. This example support the role of DDC in detecting ischemic cells in the level of a single apoptotic cell.
# [3] = test system: hepatocytes (liver sections); test: Detection by DDC in vivo of liver-cell apoptosis induced by anti-Fas antibody; design: species or system mice
# Protocol: Selective detection of apoptotic cells in vivo has numerous diagnostic and therapeutic clinical applications. […] Treatment of mice with anti-Fas monoclonal agonistic antibody induces apoptosis of hepatocytes, leading to animal death of within several hours. The study included intravenous administration of DDC to anti-Fas-Ab-injected mice, as well as to control, untreated animals. Fluorescence histopathological studies were then performed to evaluate the level of DDC binding.
# Five-week-old male BALB/c mice were injected intravenously with 10 μg/animal of purified hamster anti-Fas nAb. Mice were then injected intravenously with 70 mg/Kg of DDC. Injections were performed 30 minutes after antibody treatment. Control animals were injected with DDC only, without antibody administration. All animals were sacrificed three hours after administration of the antibody, followed by organ removal. Liver was sectioned transversely across the mid-portion of each lobe, dipped immediately into liquid nitrogen, and then transferred to −80° C. for 24 hours. Organs were then transferred into OCT solution, and cryosections (5 μm) were prepared. These sections were taken for fluorescent microscopy. Parallel sections were stained with hematoxylin/eosin (H&E), for simultaneous evaluation of the characteristic apoptotic morphology of the cells manifesting DDC binding.
# BCL1 bone marrow cells = test: Detection by DDC of apoptosis in BCL1 bone marrow cells following chemotherapy; assay type: in vivo, mice
# Protocol: as §1, with “applied: […]” for “applied:”
# [4] = test system: C26 colon carcinoma cells; test: Staining by DDC of C26 colon carcinoma cells treated with BiCNU, fluorescent microscopy; assay type: cell-based
# Protocol: For microscopic analysis the concentration of cells should be within 1-2×10^7/ml. […] If fixation is needed, it should be performed after DDC staining. • 1. Adjusting the cells to 1-2×10^7/ml in buffer. • 2. Transferring 96 μl from the cell suspension to an eppendorf and staining the cells by adding 4 μl from the DDC solution. Incubating for 10-40 minutes at RT protected from light. • 3. A double labeling could be conducted with PI, if desired. In such a case, 1 μl is added from the PI solution. • 4, Placing the cell suspension on a glass slide. Covering the cells with a glass coverslip. Alternatively, for analyzing adherent cells, cells may grow directly on coverslip. Staining the cells by incubation with DDC (4 μl of DDC/96 μl buffer reaction) or 10-40 minutes and PI (1 μl). Covering the slide with a coverslip and visualizing the cells. […] Observing the cells under fluorescent or confocal microscope equipped with the appropriate UV filter (excitation at 360-370 nm, band pass, and emission at 420 nm, barrier filter. Using a Triple filter (Hoechst/FITC/Texas Red) allows concomitant observation of both DDC and PI. Quantitative Assay for DDC Accumulation using Fluorescene Spectroscopy
# 26 colon carcinoma cells were treated with 0.5 mM BiCNU for 2 hr and stained with DDC (as detailed in the DDC protocols IIIC). Cells were analyzed by fluorescent microscope under a UV filter.
smiles,measurement,setting,value
CN(C)c1cccc2c(S(=O)(=O)NC(CSSCC(NS(=O)(=O)c3cccc4c(N(C)C)cccc34)C(=O)O)C(=O)O)cccc12 (stereo not drawn) [DDC],fluorescence of DDC in cardiomyocytes following sepsis,cardiomyocytes,can be seen in single cardiomyocites
same,uptake of DDC into single epithelial cells,[1],increased uptake
same,uptake of DDC in cardiomyocytes,[2],identified in individual cadiomyocites
same,binding of DDC in liver sections,"[3]; animals treated with anti-Fas Ab 10 μg/animal, 70 mg/Kg DDC i.v.","marked, specific binding"
same,binding of DDC in liver sections,"[3]; control animals, 70 mg/Kg DDC i.v. only",no significant binding
same,fluorescent labeling of bone marrow cells,BCL1 bone marrow cells; 24 hr following Cyclophosphamide 300 mg/kg and Taxol 20 mg/kg,a significant number of apoptotic/necrotic cells are labeled
same,fluorescent labeling of bone marrow cells,BCL1 bone marrow cells; non-treated group,no fluorescent labeling
same,stained cells in culture,[4]; 0.5 mM BiCNU for 2 hr,marked increase in the number of the stained cells
same,stained cells in culture,[4]; control culture,small percentage of stained cells
